Earlier results, collected in US20130035389A1, “METHODS FOR TREATING MYELODYSPLASTIC SYNDROME WITH EZATIOSTAT” (Telik, Inc., priority 2011, published 2013).

Assays:
GST P1-1 = GST P1-1 (Homo sapiens, UniProt P09211); settings: leads to de-repression of jun kinase and activation of c-Jun
[1] = system: hematopoietic progenitor cells; settings: in vitro
leukemia cells = settings: in vitro
myelodysplastic syndrome = settings: low risk and intermediate-1 risk MDS patients, oral, phase II study

GST P1-1, sequence (P09211 2-210 limits assumed): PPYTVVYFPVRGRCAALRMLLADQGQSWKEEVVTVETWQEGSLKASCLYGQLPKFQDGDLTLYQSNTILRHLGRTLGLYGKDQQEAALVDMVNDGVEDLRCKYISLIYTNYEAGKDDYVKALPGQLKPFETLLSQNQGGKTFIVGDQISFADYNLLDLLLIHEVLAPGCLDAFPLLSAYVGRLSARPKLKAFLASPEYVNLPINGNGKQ

Compound | inhibition of GST P1-1 (GST P1-1) | effect on growth and differentiation of hematopoietic progenitor cells [1] | apoptosis in leukemia cells (leukemia cells) | clinical response (myelodysplastic syndrome)
CCOC(=O)[C@@H](N)CCC(=O)N[C@@H](CSCc1ccccc1)C(=O)N[C@@H](C(=O)OCC)c1ccccc1 [Ezatiostat, ethyl (2S)-2-amino-5-[[(2R)-3-benzylsulfanyl-1-[[(1R)-2-ethoxy-2-oxo-1-phenylethyl]amino]-1-oxopropan-2-yl]amino]-5-oxopentanoate] | inhibits GST P1-1 | stimulate growth and differentiation of hematopoietic progenitor cells | induce apoptosis in leukemia cells | 
CCOC(=O)[C@@H](N)CCC(=O)N[C@@H](CSCc1ccccc1)C(=O)N[C@@H](C(=O)OCC)c1ccccc1.Cl [ezatiostat hydrochloride] |  |  |  | multilineage responses
